Measurements published in patent US20230313199A1, “TARGET FOR MODULATING BODY MASS” (Massachusetts Institute of Technology, priority 2020, published 2023).

Legend:
SERCA2b = SERCA2b protein level by Western blotting, 4B8^FL cells; type: cell-based, human; conditions: 40 μM heme for one hour, reduction by MFSD7C^FL expression
Description: FIGS. 5A-5F show MFSD7C and heme regulate thermogenesis through SERCA2b in THP-1 cells. […] 30 hours later, MG132 was added into half of the cells and the other half was not treated. Another 35 hours later, some cells were treated with 40 μM heme for 1 hour before lysis. Cell lysates were immunoprecipitated with anti-FLAG antibody, and eluted, followed by anti-HA immunoprecipitation and elution. Total cell lysate and elute were subjected to Western blotting and probed with anti-SERCA2b or anti-MFSD7C antibodies. Shown are representative data from one of three experiments. […] 24 hrs later, cells were either not treated or treated with 10 μM MG132 for either 6 or 12 hours. The cells were lysed and subjected to FLAG pull-down and blotted with anti-MFSD7C, anti-SERCA2b and anti-ubiquitin antibodies. Shown are representative data from one of three experiments. […] Parental THP-1 cells were either not treated or treated with heme before lysis. Shown are representative data from one of four experiments. […] Shown are representative data from one of two experiments. […] Cells were washed and treated with 40 μM heme for one hour before flow cytometry. Representative FPT histograms from one of three experiments are shown. […] Shown are representative FPT histograms from one of three experiments.
Endogenous protein extraction. […]

NTD of human MFSD7C = biological target: T1, NTD of human MFSD7C (Homo sapiens, UniProt Q9UPI3); assay: Heme absorbance-shift assay with wild-type NTD; type: binding
T1 construct: Plasmid harboring GST-His-tag-SUMO-NTD (amino acids 1-84); GST-His-tag-SUMO (N, cleaved yes); made in house; host or cells: Escherichia coli Lemo21(DE3)
T1 sequence (Q9UPI3 1-84): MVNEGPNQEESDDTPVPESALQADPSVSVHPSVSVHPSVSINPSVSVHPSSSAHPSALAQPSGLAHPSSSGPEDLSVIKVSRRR
Description: Heme absorbance-shift assay. Hemin was prepared fresh before each experiment. Approximately 20 mg of hemin (Sigma) was placed in a fresh tube and resuspended with 1 mL of DMSO. The hemin solution was slowly diluted while mixing with 1 mL of 2× buffer C (25 mM HEPES-NaOH pH 7.8, 10 mM NaCl), and aggregated hemin was eliminated by passing the solution through a 0.2 μm filter unit. Hemin concentration was determined by diluting the filtered solution with 1× buffer C 1:100 and using the extinction coefficient of 58,400 cm^−1M^−1 at 385 nm. For each reaction, the 200 μL reaction mix containing 100 μM hemin, 25 mM HEPES-NaOH pH 7.8, 10 mM NaCl, and various concentrations of wild-type or mutant NTD protein, was placed in a transparent 96-well plate. Absorbance intensity was measured using Tecan Infinite M200 Pro microplate reader, between 330 and 550 nm using 5 nm steps. The absorbance intensity for dissolved hemin was subtracted from absorbance intensity from hemin incubated with various concentrations of protein.

4B8^FL cells = assay: MMP (JC-10 kit, flow cytometry) in 4B8 cells complemented with full length MFSD7C; type: cell-based, human; conditions: heme 1 hour
Description: FIGS. 4A-4H show NTD of MFSD7C mediates heme effect on mitochondrial respiration. FIGS. 4A-4C show comparison of basal OCR (FIG. 4A), maximal OCR (FIG. 4B) and ECAR (FIG. 4C) of THP-1, 4B8, and 4B8^FL and 4B8^ΔN cells treated with vehicle or heme for 1 hour (n=18 separate experiments). […] Cells were incubated with FPT for 6 hrs, washed and reseeded in poly-lysine coated glass bottom dishes. After cells attached to the glass, medium containing 40 μM heme was added. Cells in the same field were imaged immediately and again 1 hour later. Relative FPT fluorescent intensities, normalized to THP-1, from three experiments are shown. (n=3 independent experiments). […] THP-1 cells were co-cultured with 4B8, 4B8^FL, or 4B8^ΔN in FPT solution for 6 hrs, washed and reseeded in poly-lysine coated glass bottom dishes. Cells were imaged by confocal laser-scanning microscopy. […] Representative images from three experiments are shown. Scale bar: 10 μm. […] THP-1, 4B8, 4B8^FL and 4B8^ΔN cells were treated with vehicle or heme for 1 hour and MMP was measured by using JC-10 Mitochondrial Membrane Potential Assay Kit followed by flow cytometry. […] Shown are representative Western blotting data (FIG. 4G) and quantification of band intensities from n=3 independent experiments (FIG. 4H). P-values were calculated using two-way ANOVA (*p<0.05, **p<0.01, ***p<0.005). […]

293T cells [1] = assay: Oxygen consumption rate, parental 293T cells; type: cell-based, human; conditions: 40 μM heme for 1 hour
293T cells [2] = assay: Thermogenesis by FPT, parental 293T cells; type: cell-based, human; conditions: heme for 1 hour
Description: Shown are representative graphs of OCR output of the indicated cells with or without hematin treatment and their responses to oligomycin, FCCP, and rotenone plus antimycin A (FIG. 12B), basal OCR (FIG. 12C), maximal OCR (FIG. 12D), and ECAR (FIG. 12E) from two separate experiments with n=10 biologically independent samples. Data are presented as mean value±standard deviation. Each dot represents one technical replicate. […] Parental and knockout cells were incubated with no probe or FPT for 6 hours, and then washed twice. A portion of FPT-treated cells was treated with heme for 1 hour. FPT fluorescence intensity was quantified by flow cytometry. Shown are representative plots from two separate experiments. P-values were calculated using two-way ANOVA (***p<0.001).
In the second approach, we used fluorescent polymeric thermometer (FPT), which we synthesized in-house (see above). Parental and knockout THP-1 cells were mixed together, washed and incubated with FPT in 5% w/v glucose solution for 6 hrs. The cells were washed with PBS twice and reseeded in dishes with glass bottom that was coated with poly-lysine. The cells were imaged under Confocal Laser-Scanning Microscopy at 37° C. […] Then the fluorescence intensities were determined by a flow cytometer.

Structure (SMILES): C=CC1=C(C)c2cc3[n-]c(cc4[n-]c(cc5nc(cc1n2)C(C)=C5C=C)c(C)c4CCC(=O)O)c(CCC(=O)O)c3C.[Fe+2] [heme]
- SERCA2b level (SERCA2b): restored
- absorbance shift of heme (Soret band, Q band) (NTD of human MFSD7C; 100 μM heme, various concentrations of wild-type NTD): concentration-dependent increase in the intensities of the Soret band (415 nm) and the Q band (535 nm)
- heme binding sites per NTD from rate of increase of Soret band intensities (NTD of human MFSD7C; 415 nm absorbance versus NTD concentration): two or more heme binding sites per NTD
- MMP (4B8^FL cells): decreased
- OCR (293T cells [1]): significantly stimulated
- FTP intensity (293T cells [2]): significantly stimulated
